What was measured:
[1] = test system: RPS19-deficient CD34+ cells; experiment: Human RPS19-edited model of DBA: erythroid differentiation with EPO; assay type: cell-based; details: EPO 13 days, 0.1 μM nilotinib (FIGS. 14A-14C)
Experimental: (§1) FIG. 14. Nilotinib promotes erythropoiesis in a human RPS19-edited model of DBA. RPS19 gene was edited in primary human CD34^+/CD133^+ cells with CRISPR-Cas9 technology and the cells were then differentiated with EPO for 13 days in the presence of absence of 0.1 μM nilotinib. (A) Representative flow cytometry dot plots of CD235-APC vs. CD71-FITC from control and RPS19-edited cells at 13 days of differentiation with EPO. (B) Cell surface expression of CD235A from control (mock) and RPS19-deficient cells treated with DMSO or nilotinib. (C) Percentage of mature erythrocytes (CD71^−/CD235A^+) vs. percentage of erythroid progenitors (CD71^+/CD235A^−) in RPS19-deficient cells treated with DMSO or 0.1 μM nilotinib. (D) CASP1 activity of control and RPS19-deficient cells treated with DMSO or 0.1 μM nilotinib. MFI, mean fluorescence intensity.

caspase-1 = experiment: CASP1 activity in RPS19-edited model of DBA; assay type: cell-based, human; details: 0.1 μM nilotinib (FIG. 14D)
Experimental: as §1

K562 cells = experiment: Transcriptomic analysis (RNA seq) and RT-qPCR of erythroid genes in K562 cells; assay type: cell-based, human
Experimental: FIG. 12. Nilotinib promotes an erythroid gene expression profile in human K562 cells. K562 cells were pretreated with the indicated concentrations of 0.1 μM nilotinib, for 24 h and then differentiated with 50 μM hemin for additional 24 h. RNA was extracted and transcriptomic analysis performed by RNA seq. (A) Heatmap of selected erythroid genes. (B) Validation of nilotinib-induced erythroid genes by RT-qPCR. Each dot represents a biological replicate and the mean±SEM for each group is also shown.

ZAKα = ZAKα (Homo sapiens, UniProt Q9NYL2); details: cited from earlier work
[2] = test system: primary CD34+/CD133+ HSPCs from healthy donors; experiment: Erythroid differentiation of primary CD34+/CD133+ HSPCs with EPO (flow cytometry CD235a/CD71); assay type: cell-based, human; details: 0.1 μM nilotinib from 3 to 7 d or 7 to 10 d of culture
Experimental: (§2) FIG. 8. Nilotinib promotes erythropoiesis of primary CD34^+/CD133^+ HSPCs from healthy donors. (A) Primary human CD34^+/CD133^+ cells were differentiated with erythropoietin (EPO) and 0.1 μM nilotinib was added from 3 to 7 d of culture and the number of life cells calculated by the trypan blue exclusion assay. (B, C) Cells were stained with anti-CD235a-APC and anti-CD71-FITC, and erythroid differentiation was then analyzed by flow cytometry. Representative dot plots at different differentiation times (B) and overlapped histogram of CD235a at 7 d and the mean fluorescence intensity (MFI) at different differentiation times (C) are shown.
as §2, with “FIG. 9.” for “FIG. 8.”, “with EPO” for “with erythropoietin (EPO)”, “from 7” for “from 3”, “to 10” for “to 7”, “at 10” for “at 7”, “shown. […]” for “shown.”

Chain of ZAKα (Q9NYL2 whole entry): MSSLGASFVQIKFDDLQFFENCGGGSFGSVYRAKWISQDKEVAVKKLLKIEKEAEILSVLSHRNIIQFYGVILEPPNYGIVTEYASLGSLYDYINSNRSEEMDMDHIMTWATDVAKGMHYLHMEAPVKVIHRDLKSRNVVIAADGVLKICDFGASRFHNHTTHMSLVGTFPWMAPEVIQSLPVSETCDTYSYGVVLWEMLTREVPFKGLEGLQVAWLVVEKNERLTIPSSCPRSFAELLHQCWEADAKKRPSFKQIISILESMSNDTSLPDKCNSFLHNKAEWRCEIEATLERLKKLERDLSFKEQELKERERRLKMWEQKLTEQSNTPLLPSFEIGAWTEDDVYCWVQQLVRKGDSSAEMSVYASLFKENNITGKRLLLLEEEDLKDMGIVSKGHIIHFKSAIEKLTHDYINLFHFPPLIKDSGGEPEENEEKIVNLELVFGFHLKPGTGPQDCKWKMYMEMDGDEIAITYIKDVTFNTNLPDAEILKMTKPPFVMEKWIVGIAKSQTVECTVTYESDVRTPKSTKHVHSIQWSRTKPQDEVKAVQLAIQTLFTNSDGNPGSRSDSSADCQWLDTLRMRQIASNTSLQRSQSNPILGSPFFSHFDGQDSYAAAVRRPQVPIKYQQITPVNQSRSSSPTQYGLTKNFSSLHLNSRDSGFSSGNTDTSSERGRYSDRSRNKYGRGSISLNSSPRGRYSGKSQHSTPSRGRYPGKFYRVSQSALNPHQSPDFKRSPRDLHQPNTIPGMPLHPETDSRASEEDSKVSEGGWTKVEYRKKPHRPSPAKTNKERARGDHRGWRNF

Question: With `Cc1cn(-c2cc(NC(=O)c3ccc(C)c(Nc4nccc(-c5cccnc5)n4)c3)cc(C(F)(F)F)c2)cn1` [nilotinib] as the compound, how does the “defective erythropoiesis of RPS19-deficient CD34+ cells” value [1] read?
Answer: rescued defective erythropoiesis

Question: What about the “exacerbated caspase-1 activity of RPS19-deficient cells” value (caspase-1) of the same compound?
Answer: reduced to control levels

Question: And the “transcript levels of erythroid genes (RT-qPCR)” value (K562 cells; K562 cells incubated with nilotinib)?
Answer: increased transcript levels

Question: And the “expression of erythroid genes (transcriptomic analysis)” value (K562 cells; K562 cells, 0.1 μM nilotinib 24 h, control cells and upon hemin 24 h, RNA seq)?
Answer: robustly induced

Question: What about the “affinity for ZAKα” value (ZAKα) of the same compound?
Answer: high affinity

Question: What about the “erythropoiesis of primary CD34+/CD133+ HSPCs” value [2] of the same compound?
Answer: accelerated erythropoiesis

From patent US20260240846A1, “ZAK ALPHA KINASE (MAP3K20) INHIBITORS FOR USE IN THE TREATMENT OF ANEMIA” (UNIVERSIDAD DE MURCIA, priority 2023, published 2026)
